Test results published in ChEMBL document CHEMBL5360655, “Design, Synthesis, and Biological Evaluation of Novel P2X7 Receptor Antagonists for the Treatment of Septic Acute Kidney Injury” (J Med Chem, 2023).
Activity calls are given as the source filed them. The calls are words filed in the database; no cut-off is given here.

How the values were obtained:
[1] = Toxicity in C57BL/6J mouse assessed as pathological changes in spleen at 20 mg/kg, ip administered twice at 0 hrs and 8 hrs and measured after 16 hrs by Hematoxylin-Eosin staining based analysis; assay type: organism-based; conditions: in vivo
THP-1 = assay: Inhibition of ATP-induced mitochondrial damage in human THP-1 cells at […] pretreated with compound for 3 hrs in presence of LPS followed by incubation with ATP for 1 hr by MitoTracker dye based fluorescence analysis; assay type: functional, cell-based; conditions: dose 2.5 µM, time 4.0 hrs
HEK293 [2] = assay: Cytotoxicity against human HEK293 cells transfected with human P2X7 receptor assessed as effect on cell viability at 1 to 4 uM incubated for 2 hrs by CCK8 assay; assay type: toxicity, cell-based; conditions: hek293, 2 h, dose 1-4 µM
Mus musculus [3] = assay: (§1) Reno-protective activity against LPS-induced acute kidney injury C57BL/6J mouse model assessed as decrease in tubular injury by measuring epithelial flattening and tubular dilation at 5 to 20 mg/kg, ip administered twice at 30 mins prior to LPS challenge and 8 hrs post-LPS challenge and measured at 16 hrs post-LPS challenge by Hematoxylin-Eosin staining based analysis; assay type: functional, organism-based; conditions: dose 5-20 mg/kg, time 16.5 hrs
Mus musculus [4] = assay: (§2) Reno-protective activity against CLP-induced acute kidney injury C57BL/6J mouse model assessed as decrease in GSDMD-N protein expression in kidney at 20 mg/kg, ip administered twice at 30 mins prior to CLP operation and 8 hrs post-CLP operation and measured at 16 hrs post-CLP operation by western blot analysis; assay type: functional, organism-based; conditions: time 16.5 hrs
[5] = Half life in BALB/c mouse at 10 mg/kg, iv measured for 24 hrs by LC-MS/MS analysis; assay type: ADME, organism-based; conditions: in vivo
Mus musculus [6] = assay: as §2, with “IL-18 mRNA” for “GSDMD-N protein”, “RT-qPCR” for “western blot”; assay type: functional, organism-based; conditions: time 16.5 hrs
Mus musculus [7] = assay: (§3) Reno-protective activity against CLP-induced acute kidney injury C57BL/6J mouse model assessed as decrease in NGAL mRNA expression in kidney at 20 mg/kg, ip administered twice at 30 mins prior to CLP operation and 8 hrs post-CLP operation and measured at 16 hrs post-CLP operation by RT-qPCR analysis; assay type: functional, organism-based; conditions: time 16.5 hrs
[8] = Cmax in BALB/c mouse at 10 mg/kg, iv measured for 24 hrs by LC-MS/MS analysis; assay type: ADME, organism-based; design: time 24 hrs, dose 10 mg/kg, route iv; conditions: in vivo
P2X purinoceptor 7 = biological target: T1, P2X purinoceptor 7 (Homo sapiens, UniProt Q99572); assay: Antagonist activity at P2X7 receptor in human THP-1 cells assessed as inhibition of ATP-induced IL-1beta secretion pretreated with LPS for 3 hrs followed by incubation with compound for 40 mins followed by treatment with ATP for 1 hr by ELISA; assay type: cell-based
T1 sequence (Q99572 whole entry): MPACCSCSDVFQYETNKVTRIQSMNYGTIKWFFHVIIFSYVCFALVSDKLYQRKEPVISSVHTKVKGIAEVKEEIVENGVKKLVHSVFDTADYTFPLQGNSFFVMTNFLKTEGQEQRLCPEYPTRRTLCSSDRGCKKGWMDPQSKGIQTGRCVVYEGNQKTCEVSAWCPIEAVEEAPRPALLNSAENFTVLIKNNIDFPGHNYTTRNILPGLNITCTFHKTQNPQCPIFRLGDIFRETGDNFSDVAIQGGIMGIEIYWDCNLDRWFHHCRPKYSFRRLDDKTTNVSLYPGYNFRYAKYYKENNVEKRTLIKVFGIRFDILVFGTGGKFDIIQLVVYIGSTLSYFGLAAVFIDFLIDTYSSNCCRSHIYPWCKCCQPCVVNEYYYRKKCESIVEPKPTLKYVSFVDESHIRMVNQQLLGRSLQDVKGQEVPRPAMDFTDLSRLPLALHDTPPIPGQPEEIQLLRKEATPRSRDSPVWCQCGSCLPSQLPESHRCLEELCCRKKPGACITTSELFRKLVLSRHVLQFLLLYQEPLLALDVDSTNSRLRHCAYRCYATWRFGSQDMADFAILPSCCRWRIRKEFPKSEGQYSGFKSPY

[9] = Clearance in BALB/c mouse at 10 mg/kg, po measured for 24 hrs by LC-MS/MS analysis; assay type: ADME, organism-based; conditions: in vivo
[10] = Clearance in BALB/c mouse at 10 mg/kg, ip measured for 24 hrs by LC-MS/MS analysis; assay type: ADME, organism-based; conditions: in vivo
[11] = Tmax in BALB/c mouse at 10 mg/kg, iv measured for 24 hrs by LC-MS/MS analysis; assay type: ADME, organism-based; conditions: in vivo
[12] = Toxicity in C57BL/6J mouse assessed as mortality at 600 mg/kg, ip measured for 14 days; assay type: organism-based; conditions: in vivo, 336 h, time 14 day
[13] = Tmax in BALB/c mouse at 10 mg/kg, ip measured for 24 hrs by LC-MS/MS analysis; assay type: ADME, organism-based; conditions: in vivo
Cytochrome P450 2C19 = Cytochrome P450 2C19 (Homo sapiens, UniProt P33261); assay: Inhibition of CYP2C19 in human liver microsomes using S-mephenytoin as substrate upto 100 uM incubated for 10 mins in presence of NADPH by LC-MS/MS analysis; assay type: ADME, Microsome
[14] = biological target: T2, P2X purinoceptor 7 (Homo sapiens) (UniProt Q99572); assay: Antagonist activity at P2X7 receptor in human THP-1 cells assessed as inhibition of ATP-induced NLRP3 inflammasome activation at 0.1 to […] pretreated with LPS for 3 hrs followed by incubation with compound for 40 mins followed by treatment with ATP for 1 hr by western blot analysis; assay type: cell-based; conditions: filed as antagonist, dose 0.1-2.5 µM, time 100.0 min
T2 sequence (whole entry): T1 sequence (Q99572 whole entry)

HEK293 [15] = assay: Cytotoxicity against human HEK293 cells transfected with mouse P2X7 receptor assessed as effect on cell viability at 1 to 4 uM incubated for 2 hrs by CCK8 assay; assay type: toxicity, cell-based; conditions: hek293, 2 h, dose 1-4 µM
[16] = Cmax in BALB/c mouse at 10 mg/kg, po measured for 24 hrs by LC-MS/MS analysis; assay type: ADME, organism-based; design: time 24 hrs, dose 10 mg/kg, route po; conditions: in vivo
[17] = AUC(0 to t) in BALB/c mouse at 10 mg/kg, iv measured for 24 hrs by LC-MS/MS analysis; assay type: ADME, organism-based; design: time 24 hrs, dose 10 mg/kg, route iv; conditions: in vivo
Mus musculus [18] = assay: as §3, with “NLRP3” for “NGAL”; assay type: functional, organism-based; conditions: time 16.5 hrs
Mus musculus [19] = assay: as §1, with “improvement of infiltration of inflammatory cells” for “epithelial flattening and tubular dilation”; assay type: functional, organism-based; conditions: dose 5-20 mg/kg, time 16.5 hrs
Mus musculus [20] = assay: Reno-protective activity against LPS-induced acute kidney injury C57BL/6J mouse model assessed as decrease in KIM1 mRNA expression in kidney at 5 to 20 mg/kg, ip administered twice at 30 mins prior to LPS challenge and 8 hrs post-LPS challenge and measured at 16 hrs post-LPS challenge by RT-qPCR analysis; assay type: functional, organism-based; conditions: dose 5-20 mg/kg, time 16.5 hrs
[21] = Intrinsic clearance in human liver microsomes; assay type: ADME, Microsome; conditions: read-out: CLH
Mus musculus [22] = assay: Reno-protective activity against LPS-induced acute kidney injury C57BL/6J mouse model assessed as decrease in serum […] level at 5 to 20 mg/kg, ip administered twice at 30 mins prior to LPS challenge and 8 hrs post-LPS challenge and measured at 16 hrs post-LPS challenge; assay type: functional, organism-based; conditions: dose 5-20 mg/kg, time 16.5 hrs
Mus musculus [23] = assay: as §3, with “Tnfa-gene” for “NGAL mRNA”, “RNA sequencing” for “RT-qPCR”; assay type: functional, organism-based; conditions: time 16.5 hrs
[24] = biological target: Voltage-gated inwardly rectifying potassium channel KCNH2 (Homo sapiens, UniProt Q12809); assay: Inhibition of hERG expressed in CHO cells; assay type: toxicity, cell-based
Sequence of Voltage-gated inwardly rectifying potassium channel KCNH2 (Q12809 whole entry): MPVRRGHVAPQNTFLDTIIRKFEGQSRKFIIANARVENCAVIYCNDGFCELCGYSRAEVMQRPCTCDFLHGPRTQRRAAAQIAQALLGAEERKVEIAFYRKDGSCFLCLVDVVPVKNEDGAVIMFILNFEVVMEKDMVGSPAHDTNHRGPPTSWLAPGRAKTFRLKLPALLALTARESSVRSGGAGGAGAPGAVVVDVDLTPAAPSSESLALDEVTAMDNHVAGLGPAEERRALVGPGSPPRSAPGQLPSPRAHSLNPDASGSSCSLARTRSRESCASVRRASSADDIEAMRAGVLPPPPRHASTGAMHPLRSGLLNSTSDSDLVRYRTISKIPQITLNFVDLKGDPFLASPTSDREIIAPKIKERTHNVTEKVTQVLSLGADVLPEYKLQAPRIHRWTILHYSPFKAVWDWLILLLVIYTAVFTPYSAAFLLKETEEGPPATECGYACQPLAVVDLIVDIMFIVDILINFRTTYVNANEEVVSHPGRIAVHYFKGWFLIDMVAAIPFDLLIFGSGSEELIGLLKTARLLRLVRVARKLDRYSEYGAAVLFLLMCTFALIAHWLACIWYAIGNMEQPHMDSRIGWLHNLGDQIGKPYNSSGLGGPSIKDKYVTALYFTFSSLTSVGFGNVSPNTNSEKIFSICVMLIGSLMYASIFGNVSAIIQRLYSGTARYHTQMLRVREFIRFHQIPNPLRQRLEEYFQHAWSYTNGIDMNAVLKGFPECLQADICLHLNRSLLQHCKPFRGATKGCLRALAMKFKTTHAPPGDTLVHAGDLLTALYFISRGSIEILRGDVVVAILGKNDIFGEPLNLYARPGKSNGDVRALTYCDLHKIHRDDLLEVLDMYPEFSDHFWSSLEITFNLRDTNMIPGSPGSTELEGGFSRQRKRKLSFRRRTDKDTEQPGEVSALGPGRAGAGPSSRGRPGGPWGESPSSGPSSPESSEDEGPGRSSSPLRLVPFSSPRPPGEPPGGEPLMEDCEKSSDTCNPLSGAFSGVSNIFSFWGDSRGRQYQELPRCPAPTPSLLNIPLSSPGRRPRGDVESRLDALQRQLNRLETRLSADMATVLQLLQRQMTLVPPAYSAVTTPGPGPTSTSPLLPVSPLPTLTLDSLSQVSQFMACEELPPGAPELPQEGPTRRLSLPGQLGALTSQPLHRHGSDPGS

Sequence of Cytochrome P450 2C19 (P33261 whole entry): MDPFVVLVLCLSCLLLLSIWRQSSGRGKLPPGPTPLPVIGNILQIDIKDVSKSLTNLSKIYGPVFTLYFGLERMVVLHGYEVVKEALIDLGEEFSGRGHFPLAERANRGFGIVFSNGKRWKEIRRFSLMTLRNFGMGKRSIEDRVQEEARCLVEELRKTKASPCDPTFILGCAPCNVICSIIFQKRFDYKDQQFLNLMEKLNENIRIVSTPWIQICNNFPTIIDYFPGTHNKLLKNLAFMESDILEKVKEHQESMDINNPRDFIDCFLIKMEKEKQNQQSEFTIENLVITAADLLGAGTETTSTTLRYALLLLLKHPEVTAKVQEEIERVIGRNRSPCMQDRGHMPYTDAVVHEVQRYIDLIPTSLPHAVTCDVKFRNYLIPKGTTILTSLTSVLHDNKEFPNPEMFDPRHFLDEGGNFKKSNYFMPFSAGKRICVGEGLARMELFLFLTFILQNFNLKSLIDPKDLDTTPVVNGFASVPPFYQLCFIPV

**Q.** Which results are given for `CS(=O)(=O)c1ccc(-c2nc(C(=O)NCc3cn(-c4cc(Br)ccn4)nn3)cs2)cc1`?
**A.** Activity [1]: Non-Toxic; inhibition (THP-1): Active; Activity (HEK293 [2]): Non-Toxic; Activity (Mus musculus [3]): Dose-Dependent Effect; Activity (Mus musculus [4]): Active; half-life [5]: 5.31 h; Activity (Mus musculus [6]): Active; Activity (Mus musculus [7]): Active; Cmax [8]: 4730 ng/mL; IC50 (P2X purinoceptor 7): 327 nM; CL/F [9]: 25.8 mL/min/kg; CL/F [10]: 12.7 mL/min/kg; Tmax [11]: 0.19 h; Activity [12]: Toxic; Tmax [13]: 3 h; inhibition (INH) (Cytochrome P450 2C19): Not Active; inhibition [14]: Active; Activity (HEK293 [15]): Non-Toxic; Cmax [16]: 1300 ng/mL; AUC(0-t) at 24 h [17]: 16600 ng·h/mL; Activity (Mus musculus [18]): Active; Activity (Mus musculus [19]): Dose-Dependent Effect; Activity (Mus musculus [20]): Dose-Dependent Effect; CLint scaled [21]: 16.6 mL/min/kg; Activity (Mus musculus [22]): Dose-Dependent Effect; Activity (Mus musculus [23]): Active; IC50 [24]: > 30000 nM
